Measurements taken from the NIST ThermoML archive (doi:10.1007/s10765-012-1261-6).
Several values for one entry are separate records, joined by “and”; a condition that tells them apart may be missing. Identical values can stand only once. Numbers after ± are expanded uncertainties.

Conditions: Closed cell (Static) method

O [water]
Conditions	vapor or sublimation pressure
249.29 K, Crystal	0.07045 ± 0.02 kPa
249.35 K, Crystal	0.07242 ± 0.02 kPa
250.11 K, Crystal	0.08146 ± 0.02 kPa
252.96 K, Crystal	0.09665 ± 0.02 kPa
253.02 K, Crystal	0.1036 ± 0.02 kPa and 0.1016 ± 0.02 kPa
253.59 K, Crystal	0.1049 ± 0.02 kPa
257.86 K, Crystal	0.1607 ± 0.02 kPa
258.04 K, Crystal	0.1642 ± 0.02 kPa and 0.1567 ± 0.02 kPa
258.05 K, Crystal	0.165 ± 0.02 kPa
262.84 K, Crystal	0.2552 ± 0.02 kPa
262.98 K, Crystal	0.2629 ± 0.021 kPa and 0.2541 ± 0.021 kPa
263 K, Crystal	0.2517 ± 0.02 kPa
267.85 K, Crystal	0.4157 ± 0.021 kPa
267.91 K, Crystal	0.4036 ± 0.021 kPa
267.93 K, Crystal	0.392 ± 0.021 kPa
267.99 K, Crystal	0.423 ± 0.021 kPa
272.87 K, Liquid	0.6049 ± 0.022 kPa
272.98 K, Liquid	0.6038 ± 0.022 kPa
273.02 K, Liquid	0.6135 ± 0.022 kPa
277.94 K, Liquid	0.8666 ± 0.023 kPa
277.95 K, Liquid	0.8493 ± 0.023 kPa
277.97 K, Liquid	0.8679 ± 0.023 kPa
278.01 K, Liquid	0.8712 ± 0.023 kPa
278.07 K, Liquid	0.8686 ± 0.023 kPa
282.91 K, Liquid	1.211 ± 0.025 kPa
282.94 K, Liquid	1.215 ± 0.025 kPa
282.95 K, Liquid	1.197 ± 0.025 kPa
283.03 K, Liquid	1.224 ± 0.025 kPa
288 K, Liquid	1.687 ± 0.028 kPa
292.84 K, Liquid	2.295 ± 0.033 kPa
293.03 K, Liquid	2.307 ± 0.024 kPa
293.1 K, Liquid	2.337 ± 0.033 kPa
302.8 K, Liquid	4.162 ± 0.044 kPa
303.07 K, Liquid	4.214 ± 0.038 kPa and 4.238 ± 0.048 kPa
303.1 K, Liquid	4.235 ± 0.044 kPa
312.8 K, Liquid	7.248 ± 0.063 kPa
313.11 K, Liquid	7.367 ± 0.063 kPa
313.12 K, Liquid	7.372 ± 0.064 kPa
313.16 K, Liquid	7.386 ± 0.063 kPa
317 K, Liquid	9.084 ± 0.08 kPa
322.82 K, Liquid	12.15 ± 0.086 kPa
323.13 K, Liquid	12.33 ± 0.094 kPa
323.14 K, Liquid	12.33 ± 0.093 kPa
323.19 K, Liquid	12.34 ± 0.086 kPa
328.15 K, Liquid	15.75 ± 0.12 kPa
332.83 K, Liquid	19.63 ± 0.13 kPa
333.18 K, Liquid	19.94 ± 0.14 kPa and 19.95 ± 0.14 kPa
333.24 K, Liquid	19.97 ± 0.13 kPa
338.19 K, Liquid	25.06 ± 0.17 kPa
342.81 K, Liquid	30.69 ± 0.21 kPa
343.21 K, Liquid	31.24 ± 0.21 kPa
343.22 K, Liquid	31.24 ± 0.21 kPa
343.28 K, Liquid	31.27 ± 0.19 kPa
348.23 K, Liquid	38.65 ± 0.25 kPa
352.81 K, Liquid	46.65 ± 0.31 kPa
353.23 K, Liquid	47.47 ± 0.31 kPa
353.24 K, Liquid	47.46 ± 0.3 kPa
353.31 K, Liquid	47.53 ± 0.28 kPa
358.25 K, Liquid	57.93 ± 0.35 kPa
362.79 K, Liquid	68.98 ± 0.47 kPa
363.24 K, Liquid	70.36 ± 0.48 kPa
363.26 K, Liquid	70.26 ± 0.43 kPa
363.33 K, Liquid	70.34 ± 0.4 kPa
368.27 K, Liquid	84.67 ± 0.49 kPa
373.26 K, Liquid	101.68 ± 0.54 kPa
373.28 K, Liquid	101.4 ± 0.53 kPa
373.37 K, Liquid	102.01 ± 0.54 kPa
